Assay results as given in patent US11458135B2, “Combination of pure 5-HT6 receptor antagonists with acetylcholinesterase inhibitors” (priority 2016, dated 2022).
Structures can show the parent of a compound that is named as a salt.

Tests used:
[1] = system: acetylcholine levels in ventral hippocampus of male Wistar rats; assay: Acetylcholine modulation in ventral hippocampus (microdialysis), combination treatment; assay type: in vivo, rat; settings: s.c. alone
Description: However, there were minor modifications in the microdialysis experiment.
After surgical recovery of 4-5 days, male Wistar rats were connected to dual quartz lined two-channel liquid swivel (Instech, UK) on a counter balance lever arm, which allowed unrestricted movements of the animal. Sixteen hours before start of study, a pre-equilibrated microdialysis probe (4 mm dialysis membrane) was inserted into the ventral hippocampus through the guide cannula. On the day of study, the probe was perfused with aCSF at a flow rate of 1.5 μL/min and a stabilization period of 2 h was maintained. […] Dialysates were stored below −50° C. prior to analysis.
All microdialysis data for acetylcholine was plotted as percent change from mean dialysate basal concentrations with 100% defined as the average of five pre-dose values. […] Statistical significance was considered at a p value less than 0.05. Incorrect probe placement was considered as criteria to reject the data from animal.

[2] = system: theta power in dorsal hippocampus of anesthetized male Wistar rats; assay: Evoked theta modulation in dorsal hippocampus of anesthetized male Wistar rats; assay type: in vivo, rat; settings: donepezil 0.3 mg/kg, i.v. alone
Procedure: Additionally one electrode was implanted into the cerebellum which served as a reference. Hippocampal θ rhythm was evoked via a 6-s electrical stimulation train (20-160 μA, 0.3-ms pulse duration, 250 Hz) delivered to the NPO at a rate of 0.01 trains/s with a Grass S88 stimulator and PSIU6 stimulus isolation unit (Grass Medical Instruments, Quincy, Mass.). EEG was recorded at a rate of 1000 Hz using Ponemah (Version 5.2) software and stored for off-line analysis using NeuroScore™ (Version 3.0). Baseline amplitude level was achieved by using the current required to elicit θ rhythm to 50% of the maximal amplitude under control conditions.
Power in the θ rhythm frequency in the stimulation period during the 30 min baseline period was calculated and the percent changes in these measures post treatment were calculated. […] Statistical significance was considered at a p value less than 0.05.

[3] = system: acetylcholine levels in ventral hippocampus of male Wistar rats; assay: Acetylcholine modulation in ventral hippocampus (microdialysis), test compound alone; assay type: in vivo, rat
Description: Male Wistar rats (240-300 g body weight) were stereotaxically implanted with a microdialysis guide cannula in ventral hippocampus (AP: −5.2 mm, ML: +5.0 mm, DV: −3.8 mm) under isoflurane anesthesia. […] The rats were allowed to recover individually for four-five days in a round bottom Plexiglas bowl with free access to feed and water.
One day prior to the microdialysis experiment, rats were connected to a dual quartz lined two-channel liquid swivel (Instech, UK) on a counter balance lever arm, which allowed unrestricted movements of the animal. […] On the day of experiment, perfusion rate was changed to 1.2 μL/min and stabilization period of atleast 2 hours was maintained. […] Dialysate samples were collected for additional period of 6 h using CMA/170 refrigerated fraction collector.
All microdialysis data were plotted as percent change from mean dialysate basal concentrations with 100% defined as the average of five predose values. The AUC was calculated by trapezoidal rule using WinNonlin® (5.0.1 version, Pharsight Corp. CA). The statistical significance between the mean AUC values of treatment group with vehicle was calculated using Dunnett's multiple comparison test. For each treatment group, the percent increase in acetylcholine levels was compared to the vehicle group using two-way analysis of variance (time and treatment), followed by Bonferroni post test. […]

[4] = Rodent pharmacokinetic study for assessment of drug interaction; settings: compound 1 3 mg/kg, p.o., donepezil 1 mg/kg, s.c.; male Wistar rats
Procedure: Male Wistar rats (260±50 grams) were used as experimental animals. Animals were housed individually in polypropylene cages and acclimatized for three days prior to study.
Blood was collected through retro orbital plexus under isoflurane anesthesia. Collected blood was transferred into a pre-labeled eppendorf tube containing 10 μL of sodium heparin as an anticoagulant. Blood samples were collected at following time points: 0.33, 0.66, 1, 1.5, 2, 4, 6, 8 and 24 hours post dose. Blood was centrifuged at 4000 rpm for 10 minutes. Plasma was separated and stored frozen at −80 ° C. until analysis. […] The test compounds were quantified in the calibration range around 0.05-100 ng/mL in plasma. Study samples were analyzed using calibration samples in the batch and quality control samples spread across the batch.
Pharmacokinetic parameters Cmax, Tmax and AUClast were calculated by non-compartmental model using Phoenix WinNonlin 6.4.0 version Software package.

[5] = molecular target: human recombinant 5-HT2A receptor (Homo sapiens (Human), UniProt P28223); assay: Determination of Ki value at 5-HT2A receptor (radioligand binding, [3H]-Ketanserine); settings: [3H]-Ketanserine 1.75 nM, average of three independent experiments
Description: The reaction was terminated by rapid vacuum filtration onto the glass fiber filters.

For COc1cc2c(cc1OC)C(=O)C(CC1CCN(Cc3ccccc3)CC1)C2 (stereo not shown) [Donepezil], the “maximum hippocampal acetylcholine levels” value ([1]; donepezil 1 mg/kg) was 703±134 % of basal levels and the hippocampal theta power [2] was “moderate increase”.
With CCN(C)C(=O)Oc1cccc([C@H](C)N(C)C)c1 [rivastigmine, Rivastigmine] the “increase in hippocampal acetylcholine level” value ([1]; rivastigmine 0.5 mg/kg) was “about 3 fold”.
In the case of COc1ccc2c(c1)c(CN1CCN(C)CC1)cn2S(=O)(=O)c1ccccc1Br [Compound 1, 1-[(2-Bromophenyl)sulfonyl]-5-methoxy-3-[(4-methyl-1-piperazinyl)methyl]-1H-indole dimesylate monohydrate], the “increase in hippocampal acetylcholine levels” value ([3]; 3 mg/kg, p.o., ventral hippocampus, male Wistar rats) is reported as “about 172%”, the “Area under the curve value of acetylcholine change vs vehicle treatment” value ([3]; compound 1 p.o., FIG. 2) is reported as “significantly higher” and the “difference in plasma exposures administered alone or in combination” value [4] is reported as “No significant difference”.
In the case of COc1ccc2c(c1)c(CN1CCN(C)CC1)cn2S(=O)(=O)c1ccc(F)cc1 [Compound 2, 1-[(4-Fluorophenyl)sulfonyl]-5-methoxy-3-[(4-methyl-1-piperazinyl)methyl]-1H-indole dihydrochloride], the Ki [5] is reported as greater than 10 µM.
